ChEMBL document CHEMBL1126333, “Conversion of NSAIDS into balanced dual inhibitors of cyclooxygenase and 5-lipoxygenase” (Bioorg Med Chem Lett, 1992)

Key:
Cyclooxygenase = target: T1, Cyclooxygenase (Rattus norvegicus, UniProt P35355+Q63921); assay: In vitro inhibitory activity against Cyclooxygenase was determined; assay type: protein assay
T1 sequence (P35355 whole entry): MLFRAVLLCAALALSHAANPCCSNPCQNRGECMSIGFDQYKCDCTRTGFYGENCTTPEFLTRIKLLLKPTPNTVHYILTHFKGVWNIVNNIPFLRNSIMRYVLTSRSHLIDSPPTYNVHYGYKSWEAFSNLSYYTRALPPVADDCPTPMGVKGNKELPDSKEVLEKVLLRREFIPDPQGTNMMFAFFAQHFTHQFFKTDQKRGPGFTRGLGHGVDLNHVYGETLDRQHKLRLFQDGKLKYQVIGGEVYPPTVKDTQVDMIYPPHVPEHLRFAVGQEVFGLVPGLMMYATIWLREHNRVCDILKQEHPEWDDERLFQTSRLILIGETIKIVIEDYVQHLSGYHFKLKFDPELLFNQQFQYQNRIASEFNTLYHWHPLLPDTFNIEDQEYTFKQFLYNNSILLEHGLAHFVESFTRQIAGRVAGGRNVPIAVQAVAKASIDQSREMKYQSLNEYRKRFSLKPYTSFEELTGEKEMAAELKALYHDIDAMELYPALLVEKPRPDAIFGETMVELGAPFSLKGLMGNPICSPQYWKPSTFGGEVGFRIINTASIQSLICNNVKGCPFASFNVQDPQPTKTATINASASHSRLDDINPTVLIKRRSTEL
T1 sequence (Q63921 whole entry): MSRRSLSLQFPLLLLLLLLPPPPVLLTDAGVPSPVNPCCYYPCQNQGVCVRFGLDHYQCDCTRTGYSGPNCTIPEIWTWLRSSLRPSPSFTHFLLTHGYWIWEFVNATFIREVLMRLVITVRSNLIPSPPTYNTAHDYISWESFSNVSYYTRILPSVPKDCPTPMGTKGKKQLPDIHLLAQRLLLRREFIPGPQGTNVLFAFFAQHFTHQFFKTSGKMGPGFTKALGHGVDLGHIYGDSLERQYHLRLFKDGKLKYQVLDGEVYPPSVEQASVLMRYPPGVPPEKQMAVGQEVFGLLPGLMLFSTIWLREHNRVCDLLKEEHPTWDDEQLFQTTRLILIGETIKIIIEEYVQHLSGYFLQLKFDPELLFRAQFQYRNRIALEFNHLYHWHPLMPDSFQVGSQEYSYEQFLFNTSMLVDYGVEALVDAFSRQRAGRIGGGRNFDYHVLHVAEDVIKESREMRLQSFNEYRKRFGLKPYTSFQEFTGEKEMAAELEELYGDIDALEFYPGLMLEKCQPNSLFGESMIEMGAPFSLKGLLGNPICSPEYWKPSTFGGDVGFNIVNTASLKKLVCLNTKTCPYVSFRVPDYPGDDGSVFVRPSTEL

[1] = target: T2, Polyunsaturated fatty acid 5-lipoxygenase (Rattus norvegicus) (UniProt P12527); assay: In vitro inhibitory activity against 5-lipoxygenase was determined at 16 uM
T2 sequence (whole entry): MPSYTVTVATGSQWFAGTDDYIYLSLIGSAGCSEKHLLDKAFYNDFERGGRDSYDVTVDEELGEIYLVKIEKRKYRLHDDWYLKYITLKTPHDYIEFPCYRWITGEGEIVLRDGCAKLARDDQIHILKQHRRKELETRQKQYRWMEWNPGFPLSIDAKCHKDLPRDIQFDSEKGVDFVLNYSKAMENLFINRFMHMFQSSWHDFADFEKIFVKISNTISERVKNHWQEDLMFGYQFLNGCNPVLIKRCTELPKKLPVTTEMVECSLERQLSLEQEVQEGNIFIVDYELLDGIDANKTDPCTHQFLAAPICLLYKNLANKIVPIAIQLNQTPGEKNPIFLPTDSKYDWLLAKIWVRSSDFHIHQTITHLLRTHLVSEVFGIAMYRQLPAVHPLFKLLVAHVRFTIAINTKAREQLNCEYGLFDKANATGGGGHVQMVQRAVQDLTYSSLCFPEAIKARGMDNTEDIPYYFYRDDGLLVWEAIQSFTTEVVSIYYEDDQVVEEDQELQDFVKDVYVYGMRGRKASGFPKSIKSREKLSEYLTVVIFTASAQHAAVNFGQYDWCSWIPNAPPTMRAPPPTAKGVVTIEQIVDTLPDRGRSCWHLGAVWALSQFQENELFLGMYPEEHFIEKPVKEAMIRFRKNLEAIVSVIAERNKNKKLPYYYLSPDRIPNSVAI

[2] = target: Cyclooxygenase (Rattus norvegicus) (UniProt P35355+Q63921); assay: In vitro inhibitory activity against Cyclooxygenase was determined at 16 uM; assay type: protein assay
[3] = target: T3, Polyunsaturated fatty acid 5-lipoxygenase (Rattus norvegicus, UniProt P12527); assay: In vitro inhibitory activity against 5-lipoxygenase was determined
T3 sequence (P12527 whole entry): T2 sequence (whole entry)

FC(F)(F)c1cccc(Nc2ccccc2-c2n[nH]c(=S)o2)c1
IC50 (Cyclooxygenase): 270 nM

Cc1cccc(Nc2ccccc2-c2nnc(O)o2)c1C
inhibition [1]: < 40% | inhibition [2]: < 40%

Cc1ccc(Cl)c(Nc2ccccc2-c2nnc(S)o2)c1Cl
IC50 (Cyclooxygenase): 700 nM

Cc1ccc(Cl)c(Nc2ccccc2-c2nnc(S)s2)c1Cl
IC50 (Cyclooxygenase): 1750 nM

Oc1nnc(-c2ccccc2Nc2cccc(C(F)(F)F)c2)s1
inhibition [1]: 100% | inhibition [2]: < 40%

FC(F)(F)c1cccc(Nc2ncccc2-c2nnc(S)o2)c1
IC50 (Cyclooxygenase): 190 nM | IC50 [3]: 990 nM

FC(F)(F)c1cccc(Nc2ccccc2-c2n[nH]c(=S)s2)c1
IC50 (Cyclooxygenase): 850 nM

Cc1ccc(Cl)c(Nc2ccccc2-c2nnc(O)o2)c1Cl
inhibition [1]: < 40% | inhibition [2]: < 40%
